# Data: ChEMBL document CHEMBL1123244, “Synthesis and aldose reductase inhibitory activity of substituted 2-oxoquinoline-1-acetic acid derivatives” (J Med Chem, 1986)
# Activity calls are given as the source filed them. No cut-off for these calls is given here.
# Biological target: Aldo-keto reductase family 1 member B1 (Rattus norvegicus, UniProt P07943)
# Test: Inhibition of crude aldose reductase of rat lens
row,Compound,IC50
1,COc1ccc2c(ccc(=O)n2C(C)C(=O)O)c1 (stereo unspecified),590 µM
2,CC(C(=O)O)n1c(=O)ccc2cccc(O)c21 (stereo unspecified),33 µM
3,O=C(O)Cn1c(=O)ccc2cccc(O)c21,3.3 µM
4,O=C(O)CN1C(=O)c2cccc3cccc(c23)C1=O [ALRESTATIN],1.5 µM

# The remaining lines, values ahead:
row,IC50,Compound
1,470 µM,Cc1cc(=O)n(C(C)C(=O)O)c2ccccc12 (stereo unspecified)
2,110 µM,Cc1cc(=O)n(CCC(=O)O)c2ccccc12
3,0.45 µM,Cc1cc(=O)n(CC(=O)O)c2ccc([N+](=O)[O-])cc12
4,2.4 µM,O=C(O)Cn1c(=O)ccc2cc(O)ccc21
5,6 µM,Cc1cc(=O)n(CC(=O)O)c2ccccc12
6,0.91 µM,COc1ccc2c(ccc(=O)n2CC(=O)O)c1

# Biological target: Aldo-keto reductase family 1 member B1 (Rattus norvegicus) (UniProt P07943)
# Test: Compound was tested for inhibition of crude aldose reductase obtained from rat lens, at the concentration of 100 uM
row,Compound,inhibition
1,CC(=O)Oc1cccc2ccc(O)nc12,9.5%
2,COc1ccc2nc(O)ccc2c1,25.8%

# Continued, values first:
row,inhibition,Compound
1,24%,Cc1cc(=O)[nH]c2ccccc12
2,42%,Cc1cc(=O)n(C)c2ccccc12

# Biological target: Aldo-keto reductase family 1 member B1 (Rattus norvegicus) (UniProt P07943)
# Test: Compound was tested for inhibition of crude aldose reductase obtained from rat lens, at the concentration of 100 uM; Inactive
row,inhibition,Compound
1,inactive,CCOC(=O)Cn1c(=O)cc(C)c2ccccc21

# Biological target: Aldo-keto reductase family 1 member B1 (Rattus norvegicus) (UniProt P07943)
# Test: Compound was tested for 50% inhibition of crude aldose reductase obtained from rat lens
row,inhibition,Compound
1,33%,O=C(O)Cn1ccccc1=O
